# Test results from patent publication USRE49816E1, “Dipeptides as inhibitors of human immunoproteasomes” (CORNELL UNIVERSITY, priority 2014, dated 2024).
# Entries after “also recorded” stand apart in the source; their conditions may differ. Read-outs that look alike come from different tables or passages of the source.
# How the values were obtained:
# hu i-20S β5i = hu i-20S β5i (Homo sapiens, UniProt P20618+P28062); test: Kinetic parameters of oxathiazolones vs hu i-20S β5i; format: biochemical; conditions: for kinact: printed value is kinact × 10^3
# hu c-20S β5c = hu c-20S β5c (Homo sapiens, UniProt P20618+P28074); test: Kinetic parameters of oxathiazolones vs hu c-20S β5c; format: biochemical; conditions: Hu20S β5c; from slopes of kobs vs [I]
# hu i-20S β5i-subunit = hu i-20S β5i-subunit (Homo sapiens, UniProt P20618+P28062); test: N,C-capped dipeptides IC50, Ac-ANW-AMC fluorescence assay; format: biochemical; conditions: for SI (selectivity index): Hu c-20S over Hu i-20S
# Description: (§1) All inhibitory assays for N,C capped dipeptides were performed in a black solid-bottom 96-well plate. In general, compound plates were prepared starting from 10 mM in 3× series dilution to 15 μM. 1 μl of DMSO stock was transferred to a black 96-well plate and 100 μL of reaction mixture were added 15 μM N-acetyl-Alanine-Asparagine-Tryptophan-7-amino-4-methylcourmarin (Ac-ANW-AMC) or 25 μM succinyl-Leucine-Leucine-Valine-Tyrosine-7-amino-4-methyl-courmarin (succ-LLVY-AMC), 0.4 nM hu i-20S β5i-subunit or 0.2 nM hu c-20S β5c-subunit, 0.02% SDS, 1% BSA, 0.5 mM EDTA in 20 mM HEPES buffer at pH7.5. The plates were then spun at 1000 rpm for 1 minute, and the fluorescence units of each well were recorded at λex=360 nm, λem=460 nm for 2 hours. The slopes of the initial linear range of the time course were used to calculate the velocity, and relative activities were normalized to the velocities of the DMSO control.
# hu c-20S β5c-subunit = hu c-20S β5c-subunit (Homo sapiens, UniProt P20618+P28074); test: N,C-capped dipeptides IC50, succ-LLVY-AMC fluorescence assay; format: biochemical
# Description: as §1
# [1] = test system: proteasome inside the Karpas 1106p cells; test: Cell-based Proteasome-Glo assay after compound removal; design: species or system human; conditions: 4 hours, read-out: Proteasome-glo β5-IC50
# Karpas 1106p cells [2] = test: Cytotoxicity (LD50) against Karpas lymphoma cells; format: cell-based, human; conditions: Table 3
# From the text: Table 3 lists the inhibition kinetic parameters, selectivity index, and calculated log Ps of selected dipeptides.
# Karpas 1106p cells [3] = test: Cytotoxicity (LD50) against Karpas lymphoma cells; format: cell-based, human; conditions: Table 4
# [4] = test system: HepG2 human hepatoma cells; test: Cytotoxicity against HepG2; format: cell-based; conditions: concentrations up to 50 μM
# [5] = test system: human peripheral blood mononuclear cells; test: Cytotoxicity against PBMCs; format: cell-based; conditions: concentrations up to 50 μM
# [6] = test system: human B-lymphoma cell line; test: Cytotoxicity against B-lymphoma cell line; format: cell-based; conditions: concentrations up to 50 μM
# RAW264 GFP-LC3 cells = test: Autophagy induction in RAW264 GFP-LC3 cells; format: cell-based, mouse; conditions: 10 nM, 37° C. overnight; bafilomycin A 20 nM 4 hours
# Description: Prior to fixation with 4% paraformaldehyde, the cells were treated with bafilomycin A (20 nM), an inhibitor of the late phase of autophagy, for 4 hours. Fluorescent images were recorded digitally with a multiphoton microscope. […]
# [7] = test system: mouse bone marrow derived macrophages (BMDMs); test: Cytokine production in LPS-activated macrophages (ELISA, qPCR); format: cell-based
# Description: Culture supernatants were harvested 24 hours (h) after LPS stimulation and analyzed for cytokine production by enzyme-linked immunosorbent assay (ELISA). Total RNA was isolated 4 h after LPS stimulation and analyzed by real time quantitative polymerase chain reaction (PCR) for IL-12p35 and IL-12/IL-23p40 genes. Data are expressed relative to levels of glyceraldehyde 3-phosphate dehydrogenase (GAPDH) levels and represent three independent experiments.
# The dipeptide compounds and their relative inhibitory results on the βcomponent of the human immunoproteasome (β5i) and constitutive proteasome (β5c) are described in Examples 151 and 152.
# Karpas cells = test: Accumulation of poly-ubiquitinylated proteins in Karpas cells (anti-ub blot); format: cell-based, human; conditions: 24 hours treatment
# Description: FIGS. 5A-C show experimental results relating to SAR studies and target engagement inside the cells. FIG. 5A is a graph showing experimental results relating to inhibition of i-20S β5i and c-20S β5c by selected dipeptides. […] FIG. 5C is an image of an SDS-page gel showing accumulation of poly-ubiquitinylated (ub) proteins. Karpas cells were treated with dipeptides, or with bortezomib as a control, at indicated concentrations for 24 hours, and the poly-ub proteins in the lysates were blotted with anti-ub antibody and visualized with a second antibody directed against the first antibody and tagged with a dye that absorbs infrared light (Odyssey® CLx imaging system, LICOR).
# mouse i-20S β5i = test: Predicted inhibition of mouse i-20S β5i over mouse c-20S β5c; format: biochemical; conditions: predicted from sequence identity
# [8] = test system: mouse bone marrow derived macrophages (BMDMs); test: Cytotoxicity against BMDMs; conditions: concentrations up to 50 μM
# TNBS-induced colitis [9] = test: TNBS-induced colitis in mice
# 4T1 mammary carcinoma = conditions: i.p. daily 6 mg/kg from Day 10, sacrifice Day 20; p<0.05
# TNBS-induced colitis [10] = conditions: Watanabe et al.; cited from earlier work
# [11] = test system: mouse bone marrow derived macrophages (BMDMs); conditions: Muchamuel et al. 2009; cited from earlier work
smiles,measurement,setting,value
O=c1oc(-c2ccccn2)ns1 [HT1043],kinact/KI,hu i-20S β5i; Hu20S β5i,129 M⁻¹ s⁻¹
same,kinact,hu i-20S β5i; Hu20S β5i,0.00025 s⁻¹
same,Ki,"hu i-20S β5i; Hu20S β5i, read-out: KI",2000 nM
same,kinact/KI,hu c-20S β5c,0.2 M⁻¹ s⁻¹
"COC[C@H](NC(=O)[C@H](CC(=O)NOC(C)(C)C)NC(=O)CCc1ccccc1)C(=O)NCc1cccc(OC)c1 [DPLG-2160, (S)—N^4-(tert-butoxy)-N^1—-((S)-3-methoxy-1-((3-methoxybenzyl)amino)-1-oxopropan-2-yl)-2-(3-phenylpropanamido)succinamide]",IC50,hu i-20S β5i-subunit,9.4 nM
same,SI (selectivity index),hu i-20S β5i-subunit,10
same,IC50,hu c-20S β5c-subunit,98 nM
same,IC50,[1],19 nM
same,LD50,Karpas 1106p cells [2],0.05 µM
same,LD50 Karpas,Karpas 1106p cells [3],0.05 µM
"C[C@H](NC(=O)[C@H](CC(=O)NC1COC1)NC(=O)CCc1ccccc1)C(=O)NCc1cccc2ccccc12 [DPLG-2130, (S)—N1-((S)-1-((naphthalen-1-ylmethyl)amino)-1-oxopropan-2-yl)-N4-(oxetan-3-yl)-2-(3-phenylpropanamido)succinamide]",IC50,[1],1130 nM
same,LD50,Karpas 1106p cells [2],67.8 µM
same,LD50 Karpas,Karpas 1106p cells [3],67.8 µM
"COC[C@H](NC(=O)[C@H](CC(=O)NOC(C)(C)C)NS(=O)(=O)c1ccc(C)cc1)C(=O)NCc1cccc2ccccc12 [DPLG-2150, (S)—N^4-(tert-butoxy)-N^1—((S)-3-methoxy-1-((naphthalen-1-ylmethyl)amino)-1-oxopropan-2-yl)-2-((4-methylphenyl)sulfonamido)succinamide]",IC50,hu i-20S β5i-subunit,4.4 nM
same,SI (selectivity index),hu i-20S β5i-subunit,139
same,IC50,hu c-20S β5c-subunit,610 nM
same,IC50,[1],9 nM
same,LD50,Karpas 1106p cells [2],0.8 µM
same,LD50 Karpas,Karpas 1106p cells [3],0.8 µM
Cc1sc(-c2nsc(=O)o2)cc1[N+](=O)[O-] [HT1171],kinact/KI,hu i-20S β5i; Hu20S β5i,1010 M⁻¹ s⁻¹
same,kinact,hu i-20S β5i; Hu20S β5i,0.00077 s⁻¹
same,Ki,"hu i-20S β5i; Hu20S β5i, read-out: KI",760 nM
same,kinact/KI,hu c-20S β5c,10.1 M⁻¹ s⁻¹
"Cc1ccc(S(=O)(=O)N[C@@H](CC(=O)NOC(C)(C)C)C(=O)N[C@@H](C)C(=O)NCc2cccc3ccccc23)cc1 [DPLG-2091, (S)—N4-(tert-butoxy)-2-((4-methylphenyl)sulfonamido)-N1-((S)-1-((naphthalen-1-ylmethyl)amino)-1-oxopropan-2-yl)succinamide]",IC50,hu i-20S β5i-subunit,26 nM
same,SI (selectivity index),hu i-20S β5i-subunit,88
same,IC50,hu c-20S β5c-subunit,2300 nM
same,IC50,[1],64 nM
same,LD50,Karpas 1106p cells [2],5.3 µM
same,LD50 Karpas,Karpas 1106p cells [3],5.3 µM
CC(C)(C)ONC(=O)C[C@H](NC(=O)CCc1ccccc1)C(=O)N[C@@H](Cc1ccc(F)cc1)C(=O)NCc1cccc2ccccc12 [DPLG-3],mode of inhibition,hu i-20S β5i-subunit,competitive inhibition
same,IC50,[1],110 nM
same,LD50,Karpas 1106p cells [2],2.04 µM
same,cytotoxicity,[4],not cytotoxic
same,cytotoxicity,[5],not cytotoxic
same,cytotoxicity,[6],not cytotoxic
same,induction of autophagy,RAW264 GFP-LC3 cells,induces autophagy
same,IL-10 production,[7],no significant effects
same,sensitivity of IL-12 and IL-23 production vs TNF-α (factor),[7],10-20
same,production of IL-12,"[7]; LPS 1 μg/ml, 24 h, ELISA",dose-dependently inhibited
same,production of IL-12/IL-23p40,"[7]; LPS 1 μg/ml, 24 h, ELISA",dose-dependently inhibited
same,production of TNF-α,"[7]; LPS 1 μg/ml, 24 h, ELISA",dose-dependently inhibited
same,transcription of P35 and P40,"[7]; mRNA 4 h after LPS, qPCR relative to GAPDH",reduced
same,IL-6 production,[7]; on its own,dose-dependently induced
same,accumulation of poly-ubiquitinylated proteins,Karpas cells,did not cause accumulation
same,inhibition of mouse i-20S β5i over mouse c-20S β5c,mouse i-20S β5i,potently and selectively inhibit
same,LD50 Karpas,Karpas 1106p cells [3],2.04 µM
same,cytotoxicity,[8],not cytotoxic
same,adverse effects,"TNBS-induced colitis [9]; I.P. 3-12 mg/kg, TNBS mice",did not cause detectable adverse effects
same,colitis-induced weight loss,"TNBS-induced colitis [9]; I.P. at day −1, 1 and 3, 3, 6 and 12 mg/kg, dose-dependent",strongly inhibited colitis-induced weight loss
same,colitis-induced weight loss / pathogenesis,"TNBS-induced colitis [9]; one-time i.v. injection (6 mg/kg) at time of TNBS challenge, WT mice",strongly inhibited colitis-associated pathogenesis; also recorded: strongly inhibited colitis-induced weight loss
same,tumor size and weight,4T1 mammary carcinoma,reducing the size and weight
C[C@H](NC(=O)[C@H](CC(=O)NOC(C)(C)C)NC(=O)CCc1ccccc1)C(=O)NCc1cccc2ccccc12 [DPLG-2058],IC50,[1],9 nM
same,LD50,Karpas 1106p cells [2],34.4 µM
same,LD50 Karpas,Karpas 1106p cells [3],34.4 µM
"COC[C@H](NC(=O)[C@H](CC(=O)NOC(C)(C)C)NC(=O)CCc1ccccc1)C(=O)NCc1cccc2ccccc12 [DPLG-2086, (S)—N^4-(tert-butoxy)-N^1—((S)-3-methoxy-1-((naphthalen-1-ylmethyl)amino)-1-oxopropan-2-yl)-2-(3-phenylpropanamido)succinamide]",IC50,[1],5 nM
same,LD50,Karpas 1106p cells [2],0.46 µM
same,accumulation of poly-ubiquitinylated proteins,Karpas cells,accumulation of poly-Ub proteins
same,LD50 Karpas,Karpas 1106p cells [3],0.46 µM
"C[C@H](NC(=O)[C@H](CC(=O)NOC(C)(C)C)NC(=O)C(F)(F)F)C(=O)NCc1cccc2ccccc12 [DPLG-2106, (S)—N4-(tert-butoxy)-N1-((S)-1-((naphthalen-1-ylmethyl)amino)-1-oxopropan-2-yl)-2-(2,2,2-trifluoroacetamido)succinamide]",IC50,[1],1460 nM
same,LD50,Karpas 1106p cells [2],7.8 µM
same,LD50 Karpas,Karpas 1106p cells [3],7.8 µM
"CC(C)C[C@H](NC(=O)[C@H](Cc1ccccc1)NC(=O)c1cnccn1)B(O)O [Bortezomib, reference compound]",IC50,[1],0.6 nM
same,accumulation of poly-ubiquitinylated proteins,Karpas cells,accumulation
same,LD50 Karpas,Karpas 1106p cells [3],0.0017 µM
"CC(=O)N[C@H]1C(O)O[C@H](CO)[C@@H](O)[C@@H]1O[C@H](C)C(=O)N[C@@H](C)C(=O)N[C@H](CCC(=O)O)C(N)=O (mixture of isomers) [MDP, muramyl dipeptide]",protection from colitis,TNBS-induced colitis [10],protected mice from colitis
"C[C@H](NC(=O)[C@H](CC(=O)NOC(C)(C)C)NC(=O)CCc1ccccc1)C(=O)NCc1cccc2[nH]ccc12 [DPLG-2083, (S)—N^1—((S)-1-(((1H-indol-4-yl)methyl)amino)-1-oxopropan-2-yl)-N^4-(tert-butoxy)-2-(3-phenylpropanam-ido)succinamide]",IC50,hu i-20S β5i-subunit,25 nM
same,SI (selectivity index),hu i-20S β5i-subunit,10
same,IC50,hu c-20S β5c-subunit,240 nM
same,IC50,[1],160 nM
same,LD50,Karpas 1106p cells [2],0.254 µM
same,LD50 Karpas,Karpas 1106p cells [3],0.254 µM
"COC[C@H](NC(=O)OC(C)(C)C)C(=O)N[C@@H](C)C(=O)NCc1cccc2ccccc12 [DPLG-2032, tert-butyl ((S)-3-methoxy-1-(((S)-1-((naphthalen-1-ylmethyl)amino)-1-oxopropan-2-yl)amino)-1-oxopropan-2-yl)carbamate]",IC50,hu i-20S β5i-subunit,77800 nM
same,IC50,hu c-20S β5c-subunit,> 100000 nM
same,IC50,[1],> 100000 nM
same,LD50,Karpas 1106p cells [2],37 µM
same,LD50 Karpas,Karpas 1106p cells [3],>100 µM
COc1ccc(C[C@H](NC(=O)[C@H](C)NC(=O)CN2CCOCC2)C(=O)N[C@@H](Cc2ccccc2)C(=O)[C@]2(C)CO2)cc1 [ONX 0914],effect on cytokines analyzed,[11],inhibitory
"C[C@H](NC(=O)[C@H](CC(=O)NOC(C)(C)C)NC(=O)CCCc1ccccc1)C(=O)NCc1cccc2ccccc12 [DPLG-2127, (S)—N4-(tert-butoxy)-N1-((S)-1-((naphthalen-1-ylmethyl)amino)-1-oxopropan-2-yl)-2-(4-phenylbutanamido)succinamide]",IC50,[1],160 nM
same,LD50,Karpas 1106p cells [2],>100 µM
same,LD50 Karpas,Karpas 1106p cells [3],>100 µM
O=c1oc(-c2ccc(-c3ccccc3)cc2)ns1 [HT2004],Ki,hu i-20S β5i,1400 nM
